This is an account of results in PMC13538172, “Zonisamide nanodiamonds for brain targeting: A comprehensive study utilising in silico, in vitro, in vivo, and molecular investigation for successful nose-to-brain delivery for epilepsy management” (Drug Delivery and Translational Research, 2025).

On the set-up of data set [1]: method as in PMID 10837713. Particulars: following systemic absorption; cited from earlier work.
For the next data set, the system named is Sirtuin 1 (Sirt-1). The data set can be described thus: Hippocampal SIRT-1 expression by quantitative RT-PCR in TLE rats. The data set is classed as in vivo. Particulars: relative quantitation 2-∆∆Ct; TLE control 0.16 fold of normal. As for the experimental part:
Temporal lobe epilepsy (TLE) was induced in rats using the pilocarpine model according to the method of […] et al.. Prior to the experiment, rats were housed in plastic cages at October University for Modern Science and Arts under controlled environmental conditions (temperatures of 25°±3°C and 50% humidity) with free access to water and softened standard pellet chow. The rats were injected with pilocarpine (300 mg/kg; i.p.) to induce status epilepticus (SE). Atropine (1 mg/kg; i.p.) was injected 30 minutes before pilocarpine injection to antagonize the peripheral muscarinic activity. SE was defined using the modified Racine scale by observing seizure severity categorized as stages 4 and 5. […] For quantitative RT-PCR analysis of miR-199, Sirtuin 1 (Sirt-1) and long non-coding RNA of plasmacytoma variant translocation1 (LncRNA PVT-1), RNA was isolated from the brain hippocampus tissue with direct-zol RNA Miniprep Plus (CAT no. R2072) and reverse-transcribed into cDNA with the reverse transcriptase (CAT no. 12594100) according to the manufacturer instructions. […] Quantitative reverse transcriptase PCR was performed using a Power SYBR Green PCR Master Mix (CFX96 Instrument; Bio-Rad, USA). The relative quantitation (RQ) of each target gene is quantified according to the 2-ΔΔCt method calculation.

The subject of data set [2] is neuron-specific enolase (NSE). The data set is described as follows: Serum NSE by ELISA in TLE rats. The data set is classed as in vivo. Particulars: compared to the TLE control rats; intranasal, 7 days. As for the experimental part:
(§1) Temporal lobe epilepsy (TLE) was induced in rats using the pilocarpine model according to the method of Arshad et al.. Prior to the experiment, rats were housed in plastic cages at October University for Modern Science and Arts under controlled environmental conditions (temperatures of 25°±3°C and 50% humidity) with free access to water and softened standard pellet chow. The rats were injected with pilocarpine (300 mg/kg; i.p.) to induce status epilepticus (SE). Atropine (1 mg/kg; i.p.) was injected 30 minutes before pilocarpine injection to antagonize the peripheral muscarinic activity. SE was defined using the modified Racine scale by observing seizure severity categorized as stages 4 and 5. […] The SE seizures were left to last for 3 hours to induce hippocampus damage, after which diazepam (10 mg/kg; i.p.) was injected to attenuate the seizures. Lubricant ophthalmic gel was applied with a cotton swab to each eye to prevent the corneas from drying out during the seizures. The rats were hydrated with sterile Ringer's lactate injections (1 mL, i.p.) for 3 days post-SE induction. […]
The serum levels of neuron-specific enolase (NSE), matrix metallopeptidase-9 (MMP-9), neurofilament light polypeptide (NEFL), and brain-derived neurotrophic factor (BDNF) were measured by ELISA technique using the following standard kits CAT no. […]

Data set [3] relates to experimentally induced TLE in rats. The data set can be described thus: EEG and behavioural seizures in pilocarpine-induced temporal lobe epilepsy (TLE). Particulars: intranasal 16 mg/kg/day of ZNS for 7 days. The data set is classed as in vivo, adult male Wistar albino rats. The method, then:
as §1, with “induction. Animal welfare assessments were conducted multiple times per day for several days after the induction of SE. The Pilocarpine-inducted rats began to develop spontaneous recurrent seizures (SRS) as a characteristic of TLE within 3 weeks, after which the treatments were injected for 7 days, and the in vivo pharmacodynamic investigation was conducted.” for “induction.”
At the end of the experiment, SRS was monitored using a video recorder (6 hours/day) and scored according to the Racine scale. In addition, the brain activity was recorded using an electroencephalogram (EEG, powerlab module, which consists of Power-lab/8sp and Animal Bio-Amplifier, Australia). […]

As for `NS(=O)(=O)Cc1noc2ccccc12` [ZNS, Zonisamide], the “Oldendorf Brain Uptake Index” value in data set [1] was 28%. For the same molecule, in the data set with Sirtuin 1 (Sirt-1), the “hippocampal SIRT-1 level” value is 0.47 folds. In data set [2], the “decrease in serum level of NSE” value was determined as 30.6%. Moreover, in data set [3] (n = 8), the “maximum spike amplitude during the SRS” value was 0.4 ± 0.1 mV and the “mean duration of single SRS (epileptogenic ictal discharge in EEG)” value came out at 96.5 ± 2.9 s. For the same molecule, in data set [3] (video recording 6 hours per day), the “incidence of motor seizures per 6 h” value was 3.5 ± 0.5.
